Several values for one entry are separate records, joined by “and”; a condition that tells them apart may be missing. Equal entries are not always repeated.
B1: GIPR (protein)
chain: RAETGSKGQTAGELYQRWERYRRECQETLAAAEPPSGLACNGSFDMYVCWDYAAPNATARASCPWYLPWHHHVAAGFVLRQCGSDGQWGLWRDHTQCENPEKNEAFLDQRLILERLQVMYTVGYSLSLATLLLALLILSLFRRLHCTRNYIHINLFTSFMLRAAAILSRDRLLPRPGPYLGDQALALWNQALAACRTAQIVTQYCVGANYTWLLVEGVYLHSLLVLVGGSEEGHFRYYLLLGWGAPALFVIPWVIVRYLYENTQCWERNEVKAIWWIIRTPILMTILINFLIFIRILGILLSKLRTRQMRCRDYRLRLARSTLTLVPLLGVHEVVFAPVTEEQARGALRFAKLGFEIFLSSFQGFLVSVLYCFINKEVQSEIRRGWHHCRLRRSLGEEQRQLPERAFRALPSGSGPGEVPTSRGLSSGTLPGPGNEASRELESYC

Tests used:
mGLP1R = biological target: T1, mGLP1R (Mus musculus, UniProt O35659); test: HTRF cAMP assay in transiently transfected AD293 cells; assay type: cell-based; details: 30 min 37 °C, n = 4 independent repeats, Extended Data Table 1, read-out: mGLP1R EC50 best-fit
T1 construct: expressed in transfected cells; host or cells: AD293 cells, transient transfection (Lipofectamine 2000)
T1 sequence (O35659 22-463): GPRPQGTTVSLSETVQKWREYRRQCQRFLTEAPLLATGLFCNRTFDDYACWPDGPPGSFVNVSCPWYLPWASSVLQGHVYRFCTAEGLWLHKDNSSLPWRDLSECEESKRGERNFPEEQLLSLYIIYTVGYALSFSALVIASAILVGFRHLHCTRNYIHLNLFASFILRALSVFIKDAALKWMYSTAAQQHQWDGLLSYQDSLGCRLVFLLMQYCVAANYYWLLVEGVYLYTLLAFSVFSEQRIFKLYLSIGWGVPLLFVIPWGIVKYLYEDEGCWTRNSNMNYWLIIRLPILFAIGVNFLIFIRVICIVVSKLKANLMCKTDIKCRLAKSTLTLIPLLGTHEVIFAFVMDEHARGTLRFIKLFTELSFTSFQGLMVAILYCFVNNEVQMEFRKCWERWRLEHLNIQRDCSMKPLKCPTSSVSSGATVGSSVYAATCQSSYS

hGIPR = biological target: T2, hGIPR (Homo sapiens, UniProt P48546); test: as above; assay type: cell-based; details: 30 min 37 °C, n = 4 independent repeats, Extended Data Table 1, read-out: hGIPR EC50 best-fit
T2 construct: expressed in transfected cells; host or cells: AD293 cells, transient transfection (Lipofectamine 2000)
T2 sequence (P48546 22-466): B1 chain
Protocol: (§1) AD293 cells (RRID:CVCL_9804) were transiently transfected 24 h before the assay in six-well plates with plasmids encoding wild-type hGLP1R, mGLP1R, hGIPR or mGIPR using Lipofectamine 2000. AD293 cells were authenticated at source using STR profiling. Cells were detached and treated with a range of agonist concentrations in serum-free DMEM + 0.1% BSA for 30 min at 37 °C in 96-well plates, followed by the addition of lysis buffer 2 (Cisbio) at a 1:2 ratio. Lysates were further diluted 1:10 to avoid spectral interference from the higher concentrations of fluorescent ligands in the HTRF assay, and the concentration of cAMP was determined after the addition of cAMP Dynamic detection reagents (Cisbio).

mGIPR = biological target: T3, mGIPR (Mus musculus, UniProt Q0P543); test: as above; assay type: cell-based; details: cAMP, AD293 cells, 30 min 37 °C, n = 4 independent repeats; Extended Data Table 1; read-out: mGIPR EC50 best-fit
T3 construct: expressed in transfected cells; host or cells: AD293 cells, transient transfection (Lipofectamine 2000)
T3 sequence (Q0P543 19-460): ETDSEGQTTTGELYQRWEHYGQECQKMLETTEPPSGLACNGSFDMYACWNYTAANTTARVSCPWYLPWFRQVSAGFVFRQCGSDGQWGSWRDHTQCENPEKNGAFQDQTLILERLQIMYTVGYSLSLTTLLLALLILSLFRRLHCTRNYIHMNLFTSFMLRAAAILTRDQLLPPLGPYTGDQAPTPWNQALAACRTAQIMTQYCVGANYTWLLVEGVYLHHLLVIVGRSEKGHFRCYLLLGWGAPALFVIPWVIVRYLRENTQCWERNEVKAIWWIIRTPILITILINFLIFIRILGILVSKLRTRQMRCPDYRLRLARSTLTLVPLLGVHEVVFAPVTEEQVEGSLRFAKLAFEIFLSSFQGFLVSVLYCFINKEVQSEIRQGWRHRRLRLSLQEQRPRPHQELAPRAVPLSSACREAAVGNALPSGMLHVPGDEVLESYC
Protocol: as §1

GIP(1-42) = biological target: T4, GIP(1-42) (Homo sapiens, UniProt P09681); test: competition
T4 chain: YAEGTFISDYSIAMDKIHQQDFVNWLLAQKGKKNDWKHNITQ

Molecule	EC50 (mGLP1R) [nM]	EC50 (hGIPR) [nM]	EC50 (mGIPR) [nM]	Ki (GIP(1-42))
CC[C@H](C)[C@H](NC(=O)[C@H](CC(C)C)NC(=O)[C@H](Cc1c[nH]c2ccccc12)NC(=O)[C@H](CCC(N)=O)NC(=O)[C@@H](NC(=O)[C@H](Cc1ccccc1)NC(=O)[C@H](C)NC(=O)[C@H](CCCCNC(=O)COCCOCCNC(=O)COCCOCCNC(=O)CC[C@H](NC(=O)CCCCCCCCCCCCCCCCCCC(=O)O)C(=O)O)NC(=O)[C@H](CCC(N)=O)NC(=O)[C@H](C)NC(=O)[C@@H](NC(=O)[C@H](CCCCN)NC(=O)[C@H](CC(=O)O)NC(=O)[C@H](CC(C)C)NC(=O)C(C)(C)NC(=O)[C@@H](NC(=O)[C@H](CO)NC(=O)[C@H](Cc1ccc(O)cc1)NC(=O)[C@H](CC(=O)O)NC(=O)[C@H](CO)NC(=O)[C@@H](NC(=O)[C@H](Cc1ccccc1)NC(=O)[C@@H](NC(=O)CNC(=O)[C@H](CCC(=O)O)NC(=O)C(C)(C)NC(=O)[C@@H](N)Cc1ccc(O)cc1)[C@@H](C)O)[C@@H](C)O)[C@@H](C)CC)[C@@H](C)CC)C(C)C)C(=O)N[C@@H](C)C(=O)NCC(=O)NCC(=O)N1CCC[C@H]1C(=O)N[C@@H](CO)C(=O)N[C@@H](CO)C(=O)NCC(=O)N[C@@H](C)C(=O)N1CCC[C@H]1C(=O)N1CCC[C@H]1C(=O)N1CCC[C@H]1C(=O)N[C@@H](CO)C(N)=O [tirzepatide]	29.4	0.641	112	
B1				13.9 nM and 9.38 nM

Source: publication PMC12373499 (Nature Metabolism, 2025)
